Read-outs that look alike come from different tables or passages of the source.
Columns and labels:
PDGF-Ra = biological target: T1, PDGF-Ra (Homo sapiens, UniProt P16234); assay: Inhibitory activity against PDGF-Ra phosphorylation by PDGF-AA stimulation using G292; format: cell-based; settings: for IC50: > means inhibition at indicated concentration not more than 50%, < and << not less than 50%, read-out: PDGF (E) IC50; for inhibition at 0.1 µM: G292, figure within parentheses in >100( ), at 100 nM, read-out: PDGF (E) inhibition (%) at 100 nM
T1 construct: host or cells: G-292 human osteosarcoma cells
Method in brief: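 Human osteosarcoma G-292, 0.1% FBS o/n; cpd (DMSO) 1 h 37 °C; PDGF-AA 50 ng/ml 5 min; lyse 20 min RT; PY-20 capture 4 °C o/n; anti-PDGF-Ra + HRP-GAR; OD450.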

c-kit = biological target: T2, c-kit (Homo sapiens, UniProt P10721); assay: Inhibitory activity against c-kit autophosphorylation (MO7e cells, h-SCF); format: cell-based; settings: for IC50: MO7e cells, read-out: c-kit IC50; for inhibition at 1 µM: Mo7e, at 1000 nM
T2 construct: MO7e (human megakaryocytic leukemia cell line) which had been arrested for 20 hr; endogenous in cells; host or cells: MO7e human megakaryocytic leukemia cell line
Method in brief: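 MO7e cells, arrested for 20 hr, were pretreated with test compound in DMSO for 1 hr and then stimulated with 50 ng/ml h-SCF for 5 min before lysis. Lysates were captured on immobilized anti-phosphotyrosine PY-20, probed with anti-c-kit antibody and HRP anti-rabbit IgG, and read colorimetrically at 450 nm.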

[1] = figure within parentheses in −( ) or >1000( )

T2 sequence (P10721 26-976): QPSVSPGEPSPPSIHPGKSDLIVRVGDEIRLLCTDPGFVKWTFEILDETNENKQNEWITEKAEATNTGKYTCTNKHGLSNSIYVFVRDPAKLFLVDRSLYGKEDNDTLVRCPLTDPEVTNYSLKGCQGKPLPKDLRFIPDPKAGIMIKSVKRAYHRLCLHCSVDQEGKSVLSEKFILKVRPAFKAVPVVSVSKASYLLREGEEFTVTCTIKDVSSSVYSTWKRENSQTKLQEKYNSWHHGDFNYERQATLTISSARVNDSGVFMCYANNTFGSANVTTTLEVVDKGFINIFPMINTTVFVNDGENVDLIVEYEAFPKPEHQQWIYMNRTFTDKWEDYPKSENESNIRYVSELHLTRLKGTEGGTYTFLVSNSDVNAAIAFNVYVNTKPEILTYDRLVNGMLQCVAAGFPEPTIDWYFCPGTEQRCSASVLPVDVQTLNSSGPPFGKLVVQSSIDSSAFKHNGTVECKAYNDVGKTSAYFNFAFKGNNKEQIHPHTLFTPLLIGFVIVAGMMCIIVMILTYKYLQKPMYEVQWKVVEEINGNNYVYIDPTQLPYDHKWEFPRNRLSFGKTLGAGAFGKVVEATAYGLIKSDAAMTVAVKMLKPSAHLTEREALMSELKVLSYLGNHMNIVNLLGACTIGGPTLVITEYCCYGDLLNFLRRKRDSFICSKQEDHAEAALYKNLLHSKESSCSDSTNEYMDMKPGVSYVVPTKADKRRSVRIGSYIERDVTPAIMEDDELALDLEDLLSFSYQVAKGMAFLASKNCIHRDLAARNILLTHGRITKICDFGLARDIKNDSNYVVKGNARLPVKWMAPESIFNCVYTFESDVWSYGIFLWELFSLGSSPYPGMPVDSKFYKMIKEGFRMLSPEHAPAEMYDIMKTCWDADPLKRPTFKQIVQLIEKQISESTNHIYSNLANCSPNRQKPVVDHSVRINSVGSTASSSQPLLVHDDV
T1 sequence (P16234 24-1089): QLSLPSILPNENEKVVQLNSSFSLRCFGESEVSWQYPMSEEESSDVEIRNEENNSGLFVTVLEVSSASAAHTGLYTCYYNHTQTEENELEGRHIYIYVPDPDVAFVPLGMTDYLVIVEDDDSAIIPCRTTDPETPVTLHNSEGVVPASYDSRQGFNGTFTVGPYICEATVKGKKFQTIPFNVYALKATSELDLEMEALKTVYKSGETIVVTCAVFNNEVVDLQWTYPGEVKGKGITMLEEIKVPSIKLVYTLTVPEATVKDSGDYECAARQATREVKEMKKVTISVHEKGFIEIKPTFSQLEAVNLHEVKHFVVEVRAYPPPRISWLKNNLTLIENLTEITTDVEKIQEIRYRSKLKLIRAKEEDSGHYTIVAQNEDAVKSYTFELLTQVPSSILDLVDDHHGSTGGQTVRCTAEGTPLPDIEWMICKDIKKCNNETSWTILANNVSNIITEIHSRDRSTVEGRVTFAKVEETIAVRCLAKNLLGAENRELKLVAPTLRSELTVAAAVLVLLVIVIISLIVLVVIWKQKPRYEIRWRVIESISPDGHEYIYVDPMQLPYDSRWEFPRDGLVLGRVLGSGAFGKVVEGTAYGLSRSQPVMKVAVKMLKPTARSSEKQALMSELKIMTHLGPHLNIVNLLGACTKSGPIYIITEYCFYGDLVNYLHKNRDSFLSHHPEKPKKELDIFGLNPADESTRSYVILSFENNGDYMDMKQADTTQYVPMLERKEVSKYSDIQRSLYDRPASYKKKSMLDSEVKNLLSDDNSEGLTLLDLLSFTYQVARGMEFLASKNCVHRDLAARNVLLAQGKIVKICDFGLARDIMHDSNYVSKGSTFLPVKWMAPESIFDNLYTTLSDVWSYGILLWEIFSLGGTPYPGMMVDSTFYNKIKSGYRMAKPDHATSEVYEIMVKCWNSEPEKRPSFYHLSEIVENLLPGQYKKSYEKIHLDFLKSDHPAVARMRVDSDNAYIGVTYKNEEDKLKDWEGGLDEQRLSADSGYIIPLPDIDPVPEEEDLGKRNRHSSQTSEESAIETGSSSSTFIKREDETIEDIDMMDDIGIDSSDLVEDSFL

Molecule | IC50 (PDGF-Ra; Pharmacological Test Example 1) | IC50 (c-kit; h-SCF 50 ng/ml) | IC50 (PDGF-Ra) | IC50 (c-kit; 50 ng/ml h-SCF) | further results
COc1cc2nccc(Oc3ccc(NC(=O)OC(C)c4ccccc4Br)c(C)c3C)c2cc1OC (centres unmarked) [Example 113, 1-(2-Bromophenyl)ethyl N-{4-[(6,7-dimethoxy-4-quinolyl)oxy]-2,3-dimethylphenyl}carbamate] | 18 nM | 402 nM | – | – | –
COc1cccc(OCCCOC(=O)Nc2ccc(Oc3ccnc4cc(OC)c(OC)cc34)cc2)c1 [Example 161, 3-(3-Methoxyphenoxy)propyl N-{4-[(6,7-dimethoxy-4-quinolyl)oxy]phenyl}carbamate] | < 10 nM | 178 nM | – | – | –
CCN(CCNC(=O)Nc1ccc(Oc2ccnc3cc(OC)c(OC)cc23)cc1[N+](=O)[O-])c1cccc(C)c1 [Example 666, N-{4-[(6,7-Dimethoxy-4-quinolyl)oxy]-2-nitrophenyl}-N′-[2-(ethyl-3-methylanilino)ethyl]urea] | – | – | 10 nM | 134 nM | –
COc1cc2nccc(Oc3ccc(NC(=O)NC4CCN(Cc5ccccc5)CC4)c(C)c3C)c2cc1OC [Example 635, N-(1-Benzyl-4-piperidyl)-N′-{4-[(6,7-dimethoxy-4-quinolyl)oxy]-2,3-dimethylphenyl}urea] | – | – | > 100 nM | – | inhibition at 0.1 µM (PDGF-Ra): 25%; inhibition at 1 µM (c-kit; [1]): 23%
COc1cc2nccc(Oc3cc(C)c(NC(=S)NCCNC(C)=O)cc3C)c2cc1OC [Example 515, N-{4-[(6,7-Dimethoxy-4-quinolyl)oxy]-2,5-dimethylphenyl}-N′-(2-acetamidoethyl)thiourea] | – | – | > 100 nM | – | inhibition at 0.1 µM (PDGF-Ra): 32%; inhibition at 1 µM (c-kit; [1]): 21%
COc1cc2ncnc(Oc3ccc(NC(=O)OC4CCCC4)c(C)c3C)c2cc1OC [Example 393, Cyclopentyl N-{4-[(6,7-dimethoxy-4-quinazolinyl)oxy]-2,3-dimethylphenyl}carbamate] | 82 nM | 90 nM | – | – | –
CCCCCCOC(=O)Nc1ccc(Oc2ccnc3cc(OC)c(OC)cc23)c(C)c1C [Example 261, Hexyl N-{4-[(6,7-Dimethoxy-4-quinolyl)oxy]-2,3-dimethylphenyl}carbamate] | 4 nM | 44 nM | – | – | –
CCCCN(CCCC)CCNC(=O)Nc1ccc(Oc2ncnc3cc(OC)c(OC)cc23)cc1Cl [Example 686, N-{2-Chloro-4-[(6,7-dimethoxy-4-quinazolinyl)oxy]phenyl}-N′-[2-(dibutylamino)ethyl]urea] | – | – | 38 nM | – | inhibition at 1 µM (c-kit; [1]): 19%
COc1cc2ncnc(Oc3ccc(OCCCOc4ccccc4OC)cc3)c2cc1OC [Example 810, 6,7-Dimethoxy-4-{4-[3-(2-methoxyphenoxy)propoxy]phenoxy}quinazoline] | – | – | 18 nM | – | IC50 (c-kit; h-SCF stimulation): 269 nM
COc1cc2nccc(Oc3cc(C)c(NC(=S)NCCCN4CCOCC4)cc3C)c2cc1OC [Example 553, N-{4-[(6,7-Dimethoxy-4-quinolyl)oxy]-2,5-dimethylphenyl}-N′-[3-(1-morpholino)propyl]thiourea] | – | – | > 100 nM | 320 nM | inhibition at 0.1 µM (PDGF-Ra): 40%
COc1cc2ncnc(Oc3ccc(NC(=S)NCCCN4CCCC4=O)cc3)c2cc1OC [Example 525, N-{4-[(6,7-Dimethoxy-4-quinazolinyl)oxy]phenyl}-N′-[3-(2-oxotetrahydro-1H-1-pyrrolyl)-propyl]thiourea] | – | – | 79 nM | – | inhibition at 1 µM (c-kit; [1]): 41%
COc1cc2nccc(Oc3ccc(OCCCOc4ccc(C)cc4)cc3)c2cc1OC [Example 790, 6,7-Dimethoxy-4-{4-[3-(4-methylphenoxy)propoxy]phenoxy}quinoline] | – | – | < 3 nM | 107 nM | –
COc1cc2ncnc(Oc3ccc(N(C)C(=O)OCc4ccccc4Cl)c(Cl)c3)c2cc1OC [Example 480, 2-Chlorobenzyl N-{2-chloro-4-[(6,7-dimethoxy-4-quinazolinyl)oxy]phenyl}-N-methylcarbamate] | – | – | 10 nM | – | inhibition at 1 µM (c-kit; [1]): 22%
COc1cc2nccc(Oc3ccc(NC(=O)NCCN4CCCC4)c(C)c3C)c2cc1OC [Example 620, N-{4-[(6,7-Dimethoxy-4-quinolyl)oxy]-2,3-dimethylphenyl}-N′-(2-tetrahydro-1H-1-pyrrolylethyl)urea] | – | – | < 10 nM | 519 nM | –
COc1cc2ncnc(Oc3ccc(NC(=O)OCCCOc4ccc(Cl)cc4)c(Cl)c3)c2cc1OC [Example 31, 3-(4-Chlorophenoxy)propyl N-{2-chloro-4-[(6,7-dimethoxy-4-quinazolinyl)oxy]phenyl}carbamate] | < 10 nM | 221 nM | – | – | –
N-{4-[(6,7-Dimethoxy-4-quinolyl)oxy]-2-chlorophenyl}-N′-[4-(N-benzyl)piperidinyl]urea [Example 605] | – | – | 31 nM | 394 nM | –

Molecule | IC50 (PDGF-Ra; Pharmacological Test Example 1) | IC50 (c-kit; h-SCF 50 ng/ml) | IC50 (PDGF-Ra) | IC50 (c-kit; 50 ng/ml h-SCF) | further results
COc1ccccc1COC(=O)Nc1ccc(Oc2ncnc3cc(OC)c(OC)cc23)cc1 [Example 315, 2-Methoxybenzyl N-{4-[(6,7-dimethoxy-4-quinazolinyl)oxy]phenyl}carbamate] | < 10 nM | 82 nM | – | – | –
COc1cc2nccc(Oc3ccc(NC(=S)NC(=O)c4ccc(I)cc4)c(F)c3)c2cc1OC [Example 967, N-{4-[(6,7-Dimethoxy-4-quinolyl)oxy]-2-fluorophenyl}-N′-(4-iodobenzoyl)thiourea] | – | – | 20 nM | – | inhibition at 1 µM (c-kit; figure in parentheses in −( )): 15%
COc1cc2nccc(Oc3cc(C)c(NC(=O)OCc4ccccc4Cl)cc3C)c2cc1OC [Example 241, 2-Chlorobenzyl N-{4-[(6,7-dimethoxy-4-quinolyl)oxy]-2,5-dimethylphenyl}carbamate] | 12 nM | 232 nM | – | – | –
CCCCCC(C)OC(=O)Nc1ccc(Oc2ccnc3cc(OC)c(OC)cc23)cc1 (centres unmarked) [Example 411, 1-Methylhexyl N-{4-[(6,7-dimethoxy-4-quinolyl)oxy]phenyl}carbamate] | – | – | 17 nM | 43 nM | –
COc1cc(Oc2ncnc3cc(OC)c(OC)cc23)ccc1NC(=O)NN1CCCCC1 [Example 596, N-{4-[(6,7-Dimethoxy-4-quinazolinyl)oxy]-2-methoxyphenyl}-N′-(1-piperidinyl)urea] | – | – | 63 nM | 719 nM | –
COc1cccc(OCCCOC(=O)Nc2ccc(Oc3ncnc4cc(OC)c(OC)cc34)cc2)c1 [Example 164, 3-(3-Methoxyphenoxy)propyl N-{4-[(6,7-dimethoxy-4-quinazolinyl)oxy]phenyl}carbamate] | 12 nM | 50 nM | – | – | –
COc1cc2nccc(Oc3ccc(NC(=S)NC(=O)C4C(C)(C)C4(C)C)cc3Cl)c2cc1OC [Example 760, N-{3-Chloro-4-[(6,7-dimethoxy-4-quinolyl)oxy]phenyl}-N′-[(2,2,3,3-tetramethylcyclopropyl)carbonyl]thiourea] | – | – | 83 nM | – | inhibition at 1 µM (c-kit; [1]): 48%
CCCOC(=O)Nc1ccc(Oc2ncnc3cc(OC)c(OC)cc23)cc1 [Example 314, Propyl N-{4-[(6,7-dimethoxy-4-quinazolinyl)oxy]phenyl}carbamate] | 44 nM | 32 nM | – | – | –
COc1cc2nccc(Oc3ccc(NC(=S)NCCCN4CCCCC4C)c(C)c3C)c2cc1OC (centres unmarked) [Example 549, N-{4-[(6,7-Dimethoxy-4-quinolyl)oxy]-2,3-dimethylphenyl}-N′-[3-(2-methylpiperidinyl)propyl]thiourea] | – | – | 62 nM | 681 nM | –
COc1cc2nccc(Oc3cc(C)c(NC(=O)OCCN4CCCCC4)cc3C)c2cc1OC [Example 304, 2-Piperidinoethyl N-{4-[(6,7-dimethoxy-4-quinolyl)oxy]-2,5-dimethylphenyl}carbamate] | 63 nM | 401 nM | – | – | –
COc1cc2ncnc(Oc3ccc(NC(=O)OCc4ccccc4C)cc3)c2cc1OC [Example 319, 2-Methylbenzyl N-{4-[(6,7-dimethoxy-4-quinazolinyl)oxy]phenyl}carbamate] | < 10 nM | 98 nM | – | – | –
COc1cc2ncnc(Oc3ccc(NC(=O)NCCN4CCOCC4)c([N+](=O)[O-])c3)c2cc1OC [Example 652, N-{4-[(6,7-Dimethoxy-4-quinazolinyl)oxy]-2-nitrophenyl}-N′-(2-morpholinoethyl)urea] | – | – | 43 nM | 115 nM | –
COc1cc2ncnc(Oc3ccc(NC(=O)NC4CCN(Cc5ccccc5C)C4)c(Cl)c3)c2cc1OC (centres unmarked) [Example 573, N-{2-Chloro-4-[(6,7-dimethoxy-4-quinazolinyl)oxy]phenyl}-N′-[1-(2-methylbenzyl)tetrahydro-1H-3-pyrrolyl]urea] | – | – | 39 nM | 348 nM | –
COc1cc2nccc(Oc3cc(C)c(NC(=O)NCCN4CCCC4)cc3C)c2cc1OC [Example 619, N-{4-[(6,7-Dimethoxy-4-quinolyl)oxy]-2,5-dimethylphenyl}-N′-(2-tetrahydro-1H-1-pyrrolylethyl)urea] | – | – | > 100 nM | – | inhibition at 0.1 µM (PDGF-Ra): 49%; inhibition at 1 µM (c-kit; [1]): 44%
COc1ccc(OCCCOC(=O)Nc2ccc(Oc3ncnc4cc(OC)c(OC)cc34)cc2)cc1 [Example 45, 3-(4-Methoxyphenoxy)propyl N-{4-[(6,7-dimethoxy-4-quinazolinyl)oxy]phenyl}carbamate] | < 10 nM | 91 nM | – | – | –
COc1cc2nccc(Oc3ccc(NC(=S)NC(=O)c4ccccc4C(F)(F)F)cc3F)c2cc1OC [Example 917, N-{4-[(6,7-Dimethoxy-4-quinolyl)oxy]-3-fluorophenyl}-N′-[2-(trifluoromethyl)benzoyl]thiourea] | – | – | 132 nM | – | IC50 (c-kit; h-SCF stimulation): 546 nM
